pIC50: −log10 of the molar value. Read-outs that look alike come from different tables or passages of the source.
Assays:
human Flt-3 = molecular target: T1, human Flt-3 (Homo sapiens, UniProt P36888); assay: Flt3 kinase inhibition, GST-Flt-3, 33P incorporation into poly(Glu,Tyr); format: biochemical
T1 construct: expressing the amino acid region amino acids 563-993 of the cytoplasmic kinase domain of human Flt-3; made in house; host or cells: Sf9 (baculovirus)
T1 sequence (P36888 563-993): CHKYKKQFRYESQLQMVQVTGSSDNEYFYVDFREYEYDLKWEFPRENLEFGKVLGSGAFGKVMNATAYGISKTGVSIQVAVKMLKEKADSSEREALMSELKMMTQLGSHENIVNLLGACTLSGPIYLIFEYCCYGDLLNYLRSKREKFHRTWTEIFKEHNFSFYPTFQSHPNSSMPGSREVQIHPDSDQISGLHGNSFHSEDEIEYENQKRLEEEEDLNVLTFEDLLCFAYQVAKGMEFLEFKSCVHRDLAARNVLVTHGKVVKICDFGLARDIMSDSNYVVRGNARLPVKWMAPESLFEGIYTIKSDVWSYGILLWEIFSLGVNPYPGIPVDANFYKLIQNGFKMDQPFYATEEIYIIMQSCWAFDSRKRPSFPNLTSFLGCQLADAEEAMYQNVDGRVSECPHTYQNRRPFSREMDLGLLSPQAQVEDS
Description: (§1) The compounds to be tested are then diluted in culture medium (without FCS, with 0.1% bovine serum albumin) and added to the cells. (Controls comprise medium without test compounds). After two hours' incubation at 37° C., recombinant VEGF is added; the final VEGF concentration is 20 ng/ml). After a further five minutes incubation at 37° C., the cells are washed twice with ice-cold PBS (phosphate-buffered saline) and immediately lysed in 100 μl lysis buffer per well. The lysates are then centrifuged to remove the cell nuclei, and the protein concentrations of the supernatants are determined using a commercial protein assay (BIORAD). The lysates can then either be immediately used or, if necessary, stored at −20° C. A sandwich ELISA is carried out to measure the VEGF-R2 phosphorylation: a monoclonal antibody to VEGF-R2 (for example Mab 1495.12.14; ProQinase, Freiburg, Germany) is immobilized on black ELISA plates (OptiPlate™ HTRF-96 from Packard). The plates are then washed and the remaining free protein-binding sites are saturated with 3% TopBlock® (Juro, Cat. # TB232010) in phosphate buffered saline with Tween 20® (polyoxyethylen(20)-sorbitane monolaurate, ICI/Uniquema) (PBST). The cell lysates (20 μg protein per well) are then incubated in these plates overnight at 4° C. together with an antiphosphotyrosine antibody coupled with alkaline phosphatase (PY20:AP from Zymed). […] The luminescence is measured in a Packard Top Count Microplate Scintillation Counter. The difference between the signal of the positive control (stimulated with VEGF) and that of the negative control (not stimulated with VEGF) corresponds to VEGF-induced VEGF-R2 phosphorylation (=100%). The activity of the tested substances is calculated as percent inhibition of VEGF-induced VEGF-R2 phosphorylation, wherein the concentration of substance that induces half the maximum inhibition is defined as the IC50 (inhibitory dose for 50% inhibition). […] Flt3 kinase inhibition is determined as follows: The baculovirus donor vector pFbacG01 (GIBCO) is used to generate a recombinant baculovirus expressing the amino acid region amino acids 563-993 of the cytoplasmic kinase domain of human Flt-3. The coding sequence for the cytoplasmic domain of Flt-3 is amplified by PCR from human c-DNA libraries (Clontech). The amplified DNA fragments and the pFbacG01 vector are made compatible for ligation by digestion with BamH1 and HindIII. Ligation of these DNA fragments results in the baculovirus donor plasmid Flt-3(1.1). The production of the viruses, the expression of proteins in Sf9 cells and the purification of the GST-fused proteins are performed as follows: Production of virus: Transfer vector (pFbacG01-Flt-3) containing the Flt-3 kinase domain is transfected into the DH10Bac cell line (GIBCO) and the transfected cells are plated on selective agar plates. Colonies without insertion of the fusion sequence into the viral genome (carried by the bacteria) are blue. Single white colonies are picked and viral DNA (bacmid) is isolated from the bacteria by standard plasmid purification procedures. Sf9 or Sf21 cells (American Type Culture Collection) are then transfected in flasks with the viral DNA using Cellfectin reagent. Determination of small scale protein expression in Sf9 cells: Virus containing media is collected from the transfected cell culture and used for infection to increase its titre. Virus containing media obtained after two rounds of infection is used for large-scale protein expression. For large-scale protein expression 100 cm^2 round tissue culture plates are seeded with 5×10^7 cells/plate and infected with 1 mL of virus-containing media (approx. 5 MOIs). After 3 days the cells are scraped off the plate and centrifuged at 500 rpm for 5 min. Cell pellets from 10-20, 100 cm^2 plates, are resuspended in 50 mL of ice-cold lysis buffer (25 mMTris-HCl, pH 7.5, 2 mM EDTA, 1% NP-40, 1 mM DTT, 1 mM PMSF). The cells are stirred on ice for 15 min and then centrifuged at 5000 rpms for 20 min. […]

c-Src kinase = c-Src kinase (Homo sapiens, UniProt P12931); assay: c-Src kinase inhibition; format: biochemical
Text: An appropriate assay is described in Andrejauskas-Buchdunger et al., Cancer Res. 52, 5353-8 (1992).

[1] = molecular target: T2, human VEGF-R2 receptor (KDR) (Homo sapiens, UniProt P35968); assay: VEGF-induced KDR autophosphorylation in transfected CHO cells, sandwich ELISA; format: cell-based; conditions: Table 5; read-out: KDR, IC50 class
T2 construct: expressed in transfected cells; host or cells: CHO cells
Description: as §1

[2] = Table 5, read-out: Flt-3, IC50 class
[3] = Table 5, read-out: c-scr, IC50 class

Chain of c-Src kinase (P12931 whole entry): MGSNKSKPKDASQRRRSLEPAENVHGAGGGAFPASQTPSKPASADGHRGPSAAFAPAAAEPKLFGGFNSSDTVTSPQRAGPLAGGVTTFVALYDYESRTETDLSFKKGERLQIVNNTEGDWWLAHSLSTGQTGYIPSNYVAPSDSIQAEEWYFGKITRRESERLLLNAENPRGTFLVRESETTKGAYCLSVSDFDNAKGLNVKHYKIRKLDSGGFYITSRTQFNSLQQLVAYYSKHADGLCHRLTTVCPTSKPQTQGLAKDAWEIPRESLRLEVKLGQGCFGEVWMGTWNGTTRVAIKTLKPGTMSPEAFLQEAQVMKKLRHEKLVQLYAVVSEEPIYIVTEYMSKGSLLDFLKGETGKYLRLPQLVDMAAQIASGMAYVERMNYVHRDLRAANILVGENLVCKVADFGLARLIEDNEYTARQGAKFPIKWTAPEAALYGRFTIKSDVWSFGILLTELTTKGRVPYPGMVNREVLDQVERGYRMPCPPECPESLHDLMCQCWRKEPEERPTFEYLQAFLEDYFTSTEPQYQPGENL
T2 sequence (P35968 20-1356): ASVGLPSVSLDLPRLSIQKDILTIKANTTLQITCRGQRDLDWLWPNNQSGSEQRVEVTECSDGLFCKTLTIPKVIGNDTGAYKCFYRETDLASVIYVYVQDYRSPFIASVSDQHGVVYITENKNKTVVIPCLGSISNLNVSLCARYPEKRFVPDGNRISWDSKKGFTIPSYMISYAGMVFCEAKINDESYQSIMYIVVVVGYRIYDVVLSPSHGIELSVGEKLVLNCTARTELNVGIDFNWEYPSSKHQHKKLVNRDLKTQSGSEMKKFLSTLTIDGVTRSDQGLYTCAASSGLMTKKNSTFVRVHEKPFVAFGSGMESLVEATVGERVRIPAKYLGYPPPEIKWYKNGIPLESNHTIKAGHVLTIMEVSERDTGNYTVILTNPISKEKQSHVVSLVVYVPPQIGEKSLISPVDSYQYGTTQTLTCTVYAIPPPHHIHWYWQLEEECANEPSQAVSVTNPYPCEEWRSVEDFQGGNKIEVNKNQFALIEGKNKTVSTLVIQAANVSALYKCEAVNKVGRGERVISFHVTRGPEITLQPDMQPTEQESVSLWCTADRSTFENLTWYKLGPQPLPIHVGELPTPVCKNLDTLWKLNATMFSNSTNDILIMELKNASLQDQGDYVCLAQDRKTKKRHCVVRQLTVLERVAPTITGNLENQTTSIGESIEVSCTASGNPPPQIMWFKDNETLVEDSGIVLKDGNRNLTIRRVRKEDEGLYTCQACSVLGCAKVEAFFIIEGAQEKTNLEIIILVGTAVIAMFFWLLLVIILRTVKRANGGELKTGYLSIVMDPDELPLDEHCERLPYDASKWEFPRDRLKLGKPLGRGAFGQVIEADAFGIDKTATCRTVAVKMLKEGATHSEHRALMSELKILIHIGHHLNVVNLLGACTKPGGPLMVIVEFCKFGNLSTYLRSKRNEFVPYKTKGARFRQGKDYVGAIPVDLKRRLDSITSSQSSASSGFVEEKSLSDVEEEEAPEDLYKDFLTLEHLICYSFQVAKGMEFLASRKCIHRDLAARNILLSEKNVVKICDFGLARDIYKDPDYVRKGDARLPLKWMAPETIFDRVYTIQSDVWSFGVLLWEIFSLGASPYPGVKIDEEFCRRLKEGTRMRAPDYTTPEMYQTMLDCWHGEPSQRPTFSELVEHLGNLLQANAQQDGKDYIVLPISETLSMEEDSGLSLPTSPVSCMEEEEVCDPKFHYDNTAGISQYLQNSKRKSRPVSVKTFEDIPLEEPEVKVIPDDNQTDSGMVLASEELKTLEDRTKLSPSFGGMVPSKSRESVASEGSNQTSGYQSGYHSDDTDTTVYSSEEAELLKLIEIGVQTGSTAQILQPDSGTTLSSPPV

| Structure (SMILES) | pIC50 (human Flt-3; Table 4, read-out: Flt-3, activity (IC50 for kinase inhibition)) | pIC50 (c-Src kinase; Table 4, read-out: s-Scr, activity (IC50 for kinase inhibition)) | pIC50 (human Flt-3; [2]) | pIC50 [1] | pIC50 (c-Src kinase; [3]) |
| --- | --- | --- | --- | --- | --- |
| CN1CCN(c2cccc(-c3cnn4c(N)c(-c5ccc(O)cc5)cnc34)c2)CC1 [Example 39, 4-{7-Amino-3-[3-(4-methyl-piperazin-1-yl)-phenyl]-pyrazolo[1,5-a]pyrimidin-6-yl}-phenol] | > 5.00 | – | – | – | – |
| COc1ccccc1-c1cnn2c(N)c(-c3cccc(O)c3)cnc12 [Example 48, 3-[7-Amino-3-(2-methoxy-phenyl)-pyrazolo[1,5-a]pyrimidin-6-yl]-phenol] | – | > 5.00 | – | – | – |
| Cc1nc2c(-c3cccc(N4CCN(C)CC4)c3)cnn2c(N)c1-c1cccc(Cl)c1 [Example 72, 6-(3-Chloro-phenyl)-5-methyl-3-[3-(4-methyl-piperazin-1-yl)-phenyl]-pyrazolo[1,5-a]pyrimidin-7-ylamine] | – | – | < 5.00 | > 6.00 | > 6.00 |
| Cc1nc2c(-c3ccc(N4CCN(C)CC4)cc3)cnn2c(N)c1-c1cccc(Cl)c1 [Example 73, 6-(3-Chloro-phenyl)-5-methyl-3-[4-(4-methyl-piperazin-1-yl)-phenyl]-pyrazolo[1,5-a]pyrimidin-7-ylamine] | – | – | < 5.00 | > 6.00 | > 6.00 |
| COc1cc(N2CCN(C)CC2)ccc1-c1cnn2c(N)c(-c3cccc(Cl)c3)c(C)nc12 [Example 75, 6-(3-Chloro-phenyl)-3-[2-methoxy-4-(4-methyl-piperazin-1-yl)-phenyl]-5-methyl-pyrazolo[1,5-a]pyrimidin-7-ylamine] | – | – | – | 5.00 to 6.00 | – |
| COc1cc(N2CCN(C)CC2)ccc1-c1cnn2c(N)c(-c3cccc(O)c3)cnc12 [Example 76, 3-{7-Amino-3-[2-methoxy-4-(4-methyl-piperazin-1-yl)-phenyl]-pyrazolo[1,5-a]pyrimidin-6-yl}-phenol] | – | – | > 6.00 | > 6.00 | – |
| CN1CCN(c2ccc(-c3cnn4c(N)c(-c5ccccc5Cl)cnc34)cc2)CC1 [Example 77, 6-(2-Chloro-phenyl)-3-[4-(4-methyl-piperazin-1-yl)-phenyl]-pyrazolo[1,5-a]pyrimidin-7-ylamine] | – | – | > 6.00 | > 6.00 | – |
| CN1CCN(c2cccc(-c3cnn4c(N)c(-c5ccccc5Cl)cnc34)c2)CC1 [Example 78, 6-(2-Chloro-phenyl)-3-[3-(4-methyl-piperazin-1-yl)-phenyl]-pyrazolo[1,5-a]pyrimidin-7-ylamine] | – | – | > 6.00 | > 6.00 | – |
| Cc1nc2c(-c3ccc(N4CCN(C)CC4)cc3)cnn2c(N)c1-c1ccc(F)cc1 [Example 79, 6-(4-Fluoro-phenyl)-5-methyl-3-[4-(4-methyl-piperazin-1-yl)-phenyl]-pyrazolo[1,5-a]pyrimidin-7-ylamine] | – | – | < 5.00 | 5.00 to 6.00 | > 6.00 |
| Cc1nc2c(-c3cccc(N4CCN(C)CC4)c3)cnn2c(N)c1-c1ccc(F)cc1 [Example 80, 6-(4-Fluoro-phenyl)-5-methyl-3-[3-(4-methyl-piperazin-1-yl)-phenyl]-pyrazolo[1,5-a]pyrimidin-7-ylamine] | – | – | 5.00 to 6.00 | 5.00 to 6.00 | > 6.00 |
| Cc1nc2c(-c3cccc(N4CCN(C5CCN(C)CC5)CC4)c3)cnn2c(N)c1-c1cccc(Cl)c1 [Example 81, 6-(3-Chloro-phenyl)-5-methyl-3-{3-[4-(1-methyl-piperidin-4-yl)-piperazin-1-yl]-phenyl}-pyrazolo[1,5-a]pyrimidin-7-ylamine] | – | – | < 5.00 | > 6.00 | > 6.00 |
| Cc1nc2c(-c3cccc(N4CCN(C)CC4)c3)cnn2c(N)c1-c1ccc(F)c(Cl)c1 [Example 82, 6-(3-Chloro-4-fluoro-phenyl)-5-methyl-3-[3-(4-methyl-piperazin-1-yl)-phenyl]pyrazolo[1,5-a]pyrimidin-7-ylamine] | – | – | < 5.00 | < 5.00 | > 6.00 |
| Cc1nc2c(-c3ccc(N4CCN(C)CC4)cc3)cnn2c(N)c1-c1ccc(F)c(Cl)c1 [Example 83, 6-(3-Chloro-4-fluoro-phenyl)-5-methyl-3-[4-(4-methyl-piperazin-1-yl)-phenyl]-pyrazolo[1,5-a]pyrimidin-7-ylamine] | – | – | < 5.00 | < 5.00 | > 6.00 |
| Cc1nc2c(-c3cccc(N4CCN(C)CC4)c3)cnn2c(N)c1-c1cccc(Br)c1 [Example 84, 6-(3-Bromo-phenyl)-5-methyl-3-[3-(4-methyl-piperazin-1-yl)-phenyl]-pyrazolo[1,5-a]pyrimidin-7-ylamine] | – | – | < 5.00 | 5.00 to 6.00 | > 6.00 |
| CN1CCN(c2cccc(-c3cnn4c(N)c(Cc5cccc(Br)c5)cnc34)c2)CC1 [Example 85, 6-(3-Bromo-benzyl)-3-[3-(4-methyl-piperazin-1-yl)-phenyl]pyrazolo[1,5-a]pyrimidin-7-ylamine] | – | – | < 5.00 | < 5.00 | > 6.00 |
| CN1CCN(c2cccc(-c3cnn4c(N)c(-c5cccc(Br)c5)cnc34)c2)CC1 [Example 86, 6-(3-Bromo-phenyl)-3-[3-(4-methyl-piperazin-1-yl)-phenyl]-pyrazolo[1,5-a]pyrimidin-7-ylamine] | – | – | < 5.00 | > 6.00 | > 6.00 |
| Cc1nc2c(-c3cccc(N4CCOCC4)c3)cnn2c(N)c1-c1cccc(Cl)c1 [Example 87, 6-(3-Chloro-phenyl)-5-methyl-3-(3-morpholin-4-yl-phenyl)-pyrazolo[1,5-a]pyrimidin-7-ylamine] | – | – | < 5.00 | 5.00 to 6.00 | > 6.00 |
| COc1ccc(-c2cnn3c(N)c(-c4cccc(Cl)c4)c(C)nc23)cc1 [Example 88, 6-(3-Chloro-phenyl)-3-(4-methoxy-phenyl)-5-methyl-pyrazolo[1,5-a]pyrimidin-7-ylamine] | – | – | < 5.00 | 5.00 to 6.00 | > 6.00 |
| Cc1nc2c(-c3cccc(N4C[C@@H](C)O[C@@H](C)C4)c3)cnn2c(N)c1-c1cccc(Cl)c1 [Example 89, 6-(3-Chloro-phenyl)-3-[3-((2R,6S)-2,6-dimethyl-morpholin-4-yl)-phenyl]-5-methyl-pyrazolo[1,5-a]pyrimidin-7-ylamine] | – | – | < 5.00 | 5.00 to 6.00 | > 6.00 |
| COc1ccc(-c2cnn3c(N)c(-c4cccc(Cl)c4)c(CF)nc23)cc1OC [Example 92, 6-(3-Chloro-phenyl)-3-(3,4-dimethoxy-phenyl)-5-fluoromethyl-pyrazolo[1,5-a]pyrimidin-7-ylamine] | – | – | < 5.00 | 5.00 to 6.00 | – |

— patent publication US20090099167A1, “Organic compounds” (Novartis Institutes for Biomedical Research, priority 2004, published 2009)
